{
  "source": "patent US7405317B2",
  "about": "“Phosphate-bearing prodrugs of sulfonyl hydrazines as hypoxia-selective antineoplastic agents” (priority 2004, dated 2008)",
  "key": {"[1]": {"test_system": "EMT6 murine mammary carcinoma cells", "experiment": "Aerobic/hypoxic cell survival (clonogenic assay), EMT6", "assay_type": "cell-based", "settings": "for cell kill: 0.1% oxygen, 10 μM drug concentration; for cell kill / cytotoxicity to EMT6 cells under oxygenated conditions: FIG. 5; for drug activity as a function of oxygen concentration: 10 or 25 μM, oxygen 0.05% to 21%, FIG. 6; for cytotoxicity to EMT6 cells under oxygenated conditions: normal air (21% oxygen), concentrations up to 25 μM; for in vitro cytotoxic activity to EMT6 cells versus parental racemic drug (potency and aerobic/hypoxic differential): de-phosphorylated enantiomers, aerobic/hypoxic cell assay", "procedure": "(§1) EMT6 or CHO (parental or human cytochrome P-450 reductase transfected) cells, seeded in glass milk dilution bottles, were gassed for 2 hours through a rubber septum fitted with 13 gauge (inflow) and 18 gauge (outflow) needles with a mixture of 5% CO2, oxygen at various concentrations, with the balance of the mixture made up of nitrogen, to establish various hypoxic conditions. Drugs were then injected without disrupting hypoxia. After two hours, cells were collected and plated in a clonogenic assay to determine the surviving fraction, compared to untreated controls.\n(§2) For in vitro analysis, KS119W must be converted to KS119OH (1) in an AP-catalyzed reaction shown above in FIG. 2, as the phosphorylated parent drug cannot cross cell membranes. KS119OH is then used in all subsequent in vitro studies shown in this section.\nMoreover, the R- and S-enantiomers of KS119W (VNP40541 and VNP40551) were converted to the corresponding de-phosphorylated forms for study in the in vitro aerobic/hypoxic cell assay."}, "[2]": {"test_system": "H460 human lung carcinoma", "assay_type": "in vivo, mice", "settings": "for tumor growth inhibition: H460 in CD-1 nude mice, KS119W 4 doses 180 mg/kg and 1 dose 240 mg/kg, CTX 100 mg/kg per dose, ip on days 15, 22, 27, 34, 43, CTX two hours after KS119W, FIG. 9; for reduction of final tumor volume compared with control group: H460, daily ip, FIG. 8", "procedure": "(§3) The anti-tumor effects of aforementioned prodrugs are evaluated in both solid and liquid tumor models, including the B16-F10 murine melanoma, HTB177 human lung carcinoma models, DLD1 human colon carcinoma, EMT-6 murine mammary gland carcinoma, L1210 murine leukemia, lymphoma, prostate cancer, pancreatic cancer, and head-and-neck cancer. The prodrugs are given intravenously, orally, or intraperitoneally at doses from 10 mg/kg to 2000 mg/kg; they are give at different dosing schedules such as 4 times daily, once daily, or once every several days for up to 60 doses. Testing tumor cells were implanted subcutaneously into mice, which were randomized into groups immediately after tumor cell implantation (Day 0). Mice were injected intraperitoneally (ip) with either a bolus injection of 0.1 mL PBS or drug. The treatment was carried out in a designed dosing schedule. Tumor measurement in three dimensions was determined once a week with the formula L×H×W/2, where L, H, and W represent length, height, and width, respectively.\n(§4) Efficacy of KS119 was studied in murine tumor model and human xenograft models. EMT-6 murine mammary carcinoma cells (3×10^5 cells/mouse) were implanted subcutaneously into Balb/c mice. H460 human lung carcinoma cells, HT29 human colon carcinoma cells and SHP77 human lung carcinoma cells were established as solid xenografts in nu/nu CD-1 mice and Scid/Beige mice with 7×10^7 cells/mouse, respectively. After implantation, tumors were allowed to grow to a size of 150 to 200 mm^3 before starting treatment with KS119. KS119 was formulated in a solvent containing polyethylene glycol 300 (PEG), ethyl alcohol, citric acid, and ascorbic acid.\n(§5) Efficacies of KS119W and KS119 were compared with equivalence molar doses in EMT-6 tumor and H460 tumor models. KS119W was formulated with 0.25M sodium bicarbonate solution. The treatment was started when tumors researched 150 to 200 mm^3, and lasted up to 2 weeks. KS119 at doses of 80 and 100 mg/kg and KS119W at doses of 97.6 and 121.3 mg/kg were daily administrated into mice via ip injection. […] To assess the toxicity of treatment, body weight and peripheral blood cell count were monitored after treatment.\n(§6) Combined therapy of KS119W with cytoxan (CTX) was evaluated by using KS119W at dose below the MTD in combination with nontoxic dose of CTX against EMT-6 murine mammary carcinoma and H460 human lung carcinoma in CD-1 nude mice. The tumors were allowed to grow to a size of approximately 200 mm^3. In H460 tumor model, the animals received either with 4 doses 180 mg/kg and 1 dose 240 mg/kg of KS119 or CTX at dose of 100 mg/kg per dose per animal, ip injecting the drugs on 15, 22, 27, 34 and 43 days after the tumor implantation. In the combination studies, CTX was given two hours after dosing KS119W."}, "[3]": {"test_system": "EMT-6 murine mammary carcinoma", "assay_type": "in vivo, mice", "settings": "for tumor growth inhibition: EMT-6, KS119W daily 97 mg/kg for 7 doses, CTX 100 mg/kg ip once per week for 4 doses", "procedure": "as §3, §4, §5, §6"}, "[4]": {"experiment": "Toxicity of treatment in tumor-bearing mice (body weight, blood cell count, appearance)", "assay_type": "in vivo", "settings": "for toxicity of treatment (body weight, peripheral blood cell count): KS119 80 and 100 mg/kg, KS119W 97.6 and 121.3 mg/kg, daily ip", "procedure": "as §3, with “respectively. The toxicity of these drugs in mice was mild as determined by body weight loss and animal appearance.” for “respectively.”\nEfficacies of KS119W and KS119 were compared with equivalence molar doses in EMT-6 tumor and H460 tumor models. KS119W was formulated with 0.25M sodium bicarbonate solution. The treatment was started when tumors researched 150 to 200 mm^3, and lasted up to 2 weeks. KS119 at doses of 80 and 100 mg/kg and KS119W at doses of 97.6 and 121.3 mg/kg were daily administrated into mice via ip injection. […] The toxicity of KS119 and KS119W were dose-dependent. To assess the toxicity of treatment, body weight and peripheral blood cell count were monitored after treatment.\nas §6, with “KS119W. […] The inhibition of combination therapy was statistically significant against all control groups with p values of 0.003, 0.015 and 0.038, respectively. Additive toxicity at the doses used for combination was manageable; while the 180 mg/kg qw ×4 doses of KS119W alone caused a maximum net body weight loss of 4.5%, the same dose in combination with 4 doses of CTX at 100 mg/kg per week caused 8.6% weight loss but no death. A similar degree of growth inhibition was also observed with EMT-6 tumor model. […]” for “KS119W.”"}, "[5]": {"experiment": "Solubility of KS119 in co-solvent system", "assay_type": "physicochemical", "settings": "polyethylene glycol (PEG) and ethanol co-solvent system, organic solvent or mixture, read-out: solubility in co-solvent system like polyethylene glycol (PEG) and ethanol"}, "[6]": {"test_system": "CHO-450red (human cytochrome P-450 reductase transfected CHO cells)", "experiment": "Aerobic/hypoxic cell survival, cytochrome P-450 reductase transfected CHO cells", "assay_type": "cell-based", "settings": "drug 10 μM", "procedure": "as §1, §2\n(§7) Like KS119, cytochrome P-450 reductase can activate KS1190H under hypoxic conditions."}, "[7]": {"test_system": "CHO-SCS-II (non-transfected parental line)", "experiment": "Aerobic/hypoxic cell survival, parental CHO cells", "assay_type": "cell-based", "settings": "drug 10 μM", "procedure": "as §1, §2, §7"}, "[8]": {"experiment": "Maximum tolerated dose (MTD) finding", "assay_type": "in vivo, mice", "procedure": "In order to fairly select a better compound from two enantiomers of KS119W for future clinical development, finding maximum tolerated dose (MTD) for VNP40541 (R-form) and VNP40551 (S-form) was conducted and the results were shown as Table 3."}, "[9]": {"test_system": "SHP77 human lung carcinoma", "experiment": "In vivo anti-tumor activity, SHP77 xenograft", "set-up": "species or system mice", "settings": "SHP77/Scid-Beige; dose VNP40541 110 mpk, VNP40551 85 mpk", "procedure": "as §3, with “respectively. The toxicity of these drugs in mice was mild as determined by body weight loss and animal appearance.” for “respectively.”\nEfficacy of KS119 was studied in murine tumor model and human xenograft models. EMT-6 murine mammary carcinoma cells (3×10^5 cells/mouse) were implanted subcutaneously into Balb/c mice. […]"}, "[10]": {"settings": "KS119W 97.2 mg/kg ×10 doses, KS119 equal molar dose 80 mg/kg"}, "[11]": {"settings": "KS119W 121.6 mg/kg ×7 doses, KS119 equal molar dose 100 mg/kg"}},
  "note": "Like-named read-outs stand apart in the source and are kept apart here.",
  "data": [
    {"smiles": "CC(OC(=O)N(N(CCCl)S(C)(=O)=O)S(C)(=O)=O)c1ccc([N+](=O)[O-])c(O)c1", "note": "(racemic) [KS119OH]", "values": [
      {"measurement": "cell kill", "setting": "[1]", "value": "~5 orders of magnitude"},
      {"measurement": "drug activity as a function of oxygen concentration", "setting": "[1]", "value": "significant drug activity at all oxygen concentrations below 10% oxygen"},
      {"measurement": "cytotoxicity to EMT6 cells under oxygenated conditions", "setting": "[1]", "value": "virtually inactive"}
    ]},
    {"smiles": "O=P1(N(CCCl)CCCl)NCCCO1", "note": "(stereo not shown) [CTX, reference compound]", "values": [
      {"measurement": "tumor growth inhibition", "setting": "[2]", "value": 54, "unit": "%"},
      {"measurement": "tumor growth inhibition", "setting": "[3]", "value": "negligible effect"}
    ]},
    {"smiles": "CC(OC(=O)N(N(CCCl)S(C)(=O)=O)S(C)(=O)=O)c1ccc([N+](=O)[O-])cc1", "note": "(stereo not shown) [KS119, 1,2-Bis(methylsulfonyl)-2-(2-chloroethyl)-hydrazine carboxylic acid 1-(4-nitrophenyl)ethyl ester, reference compound]", "values": [
      {"measurement": "toxicity of treatment (body weight, peripheral blood cell count)", "setting": "[4]", "value": "not significant hematological toxicity or severe weight loss"},
      {"measurement": "solubility", "setting": "[5]", "value": "< 5000", "unit": "µg/mL"},
      {"measurement": "cell kill", "setting": "[1]", "value": "~5 orders of magnitude"},
      {"measurement": "drug activity as a function of oxygen concentration", "setting": "[1]", "value": "significant drug activity at all oxygen concentrations below 10% oxygen"},
      {"measurement": "cytotoxicity to EMT6 cells under oxygenated conditions", "setting": "[1]", "value": "virtually inactive"},
      {"measurement": "reduction of final tumor volume compared with control group", "setting": "[2]; [10]", "value": 40, "unit": "%"},
      {"measurement": "reduction of final tumor volume compared with control group", "setting": "[2]; [11]", "value": 40, "unit": "%"}
    ]},
    {"smiles": "CC(OC(=O)N(N(CCCl)S(C)(=O)=O)S(C)(=O)=O)c1ccc([N+](=O)[O-])c(OP(=O)(O)O)c1", "note": "(stereo not shown) [KS119W, 1,2-Bis(methylsulfonyl)-2-(2-chloroethyl)hydrazine-carboxylic acid 1-(3-dihydrogenphosphonoxy-4-nitrophenyl)ethyl ester]", "values": [
      {"measurement": "Surviving fraction at 0.1% oxygen", "setting": "[6]", "value": 0.009444},
      {"measurement": "Surviving fraction in air", "setting": "[6]", "value": 0.8791},
      {"measurement": "toxicity of treatment (body weight, peripheral blood cell count)", "setting": "[4]", "value": "not significant hematological toxicity or severe weight loss"},
      {"measurement": "maximum net body weight loss", "setting": "[4]; KS119W 180 mg/kg qw ×4 doses alone or with 4 doses of CTX at 100 mg/kg per week", "value": 4.5, "unit": "%"},
      {"measurement": "Surviving fraction at 0.1% oxygen", "setting": "[7]", "value": 0.3336},
      {"measurement": "Surviving fraction in air", "setting": "[7]", "value": 1.185},
      {"measurement": "reduction of final tumor volume compared with control group", "setting": "[2]; [10]", "value": 60, "unit": "%"},
      {"measurement": "reduction of final tumor volume compared with control group", "setting": "[2]; [11]", "value": 78, "unit": "%"},
      {"measurement": "tumor growth inhibition", "setting": "[2]", "value": 78, "unit": "%"},
      {"measurement": "tumor growth inhibition", "setting": "[3]", "value": 59, "unit": "%"}
    ]},
    {"smiles": "C[C@@H](OC(=O)N(N(CCCl)S(C)(=O)=O)S(C)(=O)=O)c1ccc([N+](=O)[O-])c(O)c1", "note": "[R-KS119OH]", "values": [
      {"measurement": "in vitro cytotoxic activity to EMT6 cells versus parental racemic drug (potency and aerobic/hypoxic differential)", "setting": "[1]", "value": "very similar to the parental racemic drug"}
    ]},
    {"smiles": "C[C@H](OC(=O)N(N(CCCl)S(C)(=O)=O)S(C)(=O)=O)c1ccc([N+](=O)[O-])c(O)c1", "note": "[S-KS119OH]", "values": [
      {"measurement": "in vitro cytotoxic activity to EMT6 cells versus parental racemic drug (potency and aerobic/hypoxic differential)", "setting": "[1]", "value": "very similar to the parental racemic drug"}
    ]},
    {"smiles": "C[C@H](OC(=O)N(N(CCCl)S(C)(=O)=O)S(C)(=O)=O)c1ccc([N+](=O)[O-])c(OP(=O)(O)O)c1", "note": "[VNP40551]", "values": [
      {"measurement": "Surviving fraction at 0.1% oxygen", "setting": "[6]", "value": 0.002553},
      {"measurement": "Surviving fraction in air", "setting": "[6]", "value": 1.015},
      {"measurement": "MTD", "setting": "[8]; BALB/c mice, × 5", "value": 85, "unit": "mpk"},
      {"measurement": "MTD", "setting": "[8]; Nude CD-1 mice, × 10", "value": 80, "unit": "mpk"},
      {"measurement": "MTD", "setting": "[8]; Scid/Beige mice, × 8", "value": 85, "unit": "mpk"},
      {"measurement": "Inhibition (%)", "setting": "[9]", "value": 82, "unit": "%"},
      {"measurement": "Surviving fraction at 0.1% oxygen", "setting": "[7]", "value": 0.1188},
      {"measurement": "Surviving fraction in air", "setting": "[7]", "value": 1.148},
      {"measurement": "Inhibition (%)", "setting": "[2]; H460/Nude Mice, dose VNP40541 80-140 mpk, VNP40551 40-80 mpk", "value": "53-80%"},
      {"measurement": "Inhibition (%)", "setting": "[3]; EMT6/BLAB-c Mice, dose VNP40541 85-115 mpk, VNP40551 55-85 mpk", "value": "52-78%"}
    ]}
  ]
}
